Consider 1 molecule from patent US6303619A, “Meta-substituted acidic 8-phenylxanthine antagonists of A3 human adenosine receptors” (priority 1998, dated 2001).

The target of assay [1] is T1, human A2B adenosine receptor (Homo sapiens, UniProt P29275).
T1 construct: expressed in transfected cells; host or cells: COS7 cells
T1 sequence (P29275 1-332): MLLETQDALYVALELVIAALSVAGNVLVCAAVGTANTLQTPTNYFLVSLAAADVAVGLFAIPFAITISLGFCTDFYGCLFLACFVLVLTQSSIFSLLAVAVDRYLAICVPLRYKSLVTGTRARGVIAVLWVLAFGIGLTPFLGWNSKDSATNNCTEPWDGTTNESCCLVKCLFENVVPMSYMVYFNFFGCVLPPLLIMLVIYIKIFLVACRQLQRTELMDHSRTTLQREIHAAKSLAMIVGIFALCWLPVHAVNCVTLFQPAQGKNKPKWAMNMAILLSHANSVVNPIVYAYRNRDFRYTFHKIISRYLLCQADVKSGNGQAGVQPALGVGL
Nature of the assay: competition binding, recombinant human A2B adenosine receptor. As to conditions: A3 versus A2B. On the procedure:
Monolayer cell culture of transfected COS7 cells were dissociated with 1 mM EDTA in phosphate buffered saline and resuspended in 5 mM Tris, pH7.6/10 mM MgCl2. The cells were subjected to freeze-thaw lysis and the suspension was homogenized in a glass dounce homogenizer. The membranes were pelleted, resuspended in binding buffer, 50 mM Tris pH 7.6/10 mM MgCl2 and incubated with adenosine deaminase before the binding assay. The binding assay was performed by incubating 50-100 Fg of membranes with increasing concentrations of radiolabeled adenosine agonists. Bound ligand was separated from free ligand by filtration on a SKATRON CELL […] equipped with a receptor binding filtermat. Bound radioactivity was measured by scintillation counting. Substances which bind to or enhance binding to expressed human adenosine receptors in COS and CHO cells can be identified in competition binding assays with radiolabeled adenosine or xanthine analogs. […] Membranes were prepared from transiently transfected COS7 cells 48 h after transfection or from G418-selected stably transfected CHO or HEK 293 cells. […] Protein concentration was determined by tie method of Bradford ((1976) Anal. Biochem. 72: 248-250). […] Bound radioactivity was measured by scintillation counting. Non-specific binding was measured on membranes prepared from non-transfected COS7 cells.

Assay [2] has as its target T2, human A2A adenosine receptor (Homo sapiens, UniProt P29274).
T2 construct: expressed in transfected cells; host or cells: COS7 cells
Nature of the assay: competition binding, recombinant human A2A adenosine receptor. As to conditions: A3 versus A2A. As for the experimental part:
Monolayer cell culture of transfected COS7 cells were dissociated with 1 mM EDTA in phosphate buffered saline and resuspended in 5 mM Tris, pH7.6/10 mM MgCl2. The cells were subjected to freeze-thaw lysis and the suspension was homogenized in a glass dounce homogenizer. The membranes were pelleted, resuspended in binding buffer, 50 mM Tris pH 7.6/10 mM MgCl2 and incubated with adenosine deaminase before the binding assay. The binding assay was performed by incubating 50-100 Fg of membranes with increasing concentrations of radiolabeled adenosine agonists. Bound ligand was separated from free ligand by filtration on a SKATRON CELL […] equipped with a receptor binding filtermat. Bound radioactivity was measured by scintillation counting. Substances which bind to or enhance binding to expressed human adenosine receptors in COS and CHO cells can be identified in competition binding assays with radiolabeled adenosine or xanthine analogs. […] Protein concentration was determined by tie method of Bradford ((1976) Anal. Biochem. 72: 248-250). […] Bound radioactivity was measured by scintillation counting in READY SAFE SCINTILLATION COCKTAIL (BECKMAN). […] Non-specific binding was determined in the presence of 100 FM CPA. Bound radioactivity was measured by scintillation counting in READY SAFE LIQUID SCINTILLATION COCKTAIL (BECKMAN).

T2 sequence (P29274 whole entry): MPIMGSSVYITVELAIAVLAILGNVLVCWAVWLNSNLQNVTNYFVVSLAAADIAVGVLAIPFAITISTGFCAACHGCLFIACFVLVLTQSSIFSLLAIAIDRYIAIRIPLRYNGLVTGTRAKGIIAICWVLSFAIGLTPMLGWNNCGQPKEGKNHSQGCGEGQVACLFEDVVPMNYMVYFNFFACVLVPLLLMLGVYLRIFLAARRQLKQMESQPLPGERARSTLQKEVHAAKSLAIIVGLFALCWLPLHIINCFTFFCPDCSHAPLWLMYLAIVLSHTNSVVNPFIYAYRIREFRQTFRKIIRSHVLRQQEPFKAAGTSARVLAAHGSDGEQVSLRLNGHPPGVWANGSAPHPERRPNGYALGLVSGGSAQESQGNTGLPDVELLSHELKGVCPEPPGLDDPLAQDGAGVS

With `CCCn1c(=O)c2[nH]c(-c3cccc(C=CC(=O)O)c3)nc2n(CCC)c1=O` [BW-3911], the “fold selectivity for A3 compared to human A2B” value in assay [1] amounted to 70 fold. For the same molecule, the “fold selectivity for A3 compared to human A2A” value in assay [2] turned out to be 18 fold.
